Test results reported in patent US20180104332A1, “INSULIN-LIKE GROWTH FACTOR INHIBITOR AND CHEMOTHERAPEUTIC AGENT FOR USE IN CANCER THERAPY” (The University of Liverpool, priority 2015, published 2018).

B1: BI 836845: IGF blocking antibody, in phase 1 clinical trials for various solid cancers (antibody, chains of the INN, looked up, V domains shown)
VH: QVELVESGGGLVQPGGSLRLSCAASGFTFTSYWMSWVRQAPGKGLELVSSITSYGSFTYYADSVKGRFTISRDNSKNTLYLQMNSLRAEDTAVYYCARNMYTHFDSWGQGTLVTVSS
VL: DIVLTQPPSVSGAPGQRVTISCSGSSSNIGSNSVSWYQQLPGTAPKLLIYDNSKRPSGVPDRFSGSKSGTSASLAITGLQSEDEADYYCQSRDTYGYYWVFGGGTKLTVL

Key:
[1] = system: KPC-derived orthotopic pancreatic tumors; assay: Syngeneic orthotopic pancreatic cancer model, gemcitabine and IGF blocking antibody BI 836845; type: in vivo, mouse; settings: for effect on tumor growth (tumor weights): i.p. twice a week for two weeks, gemcitabine 100 mg/Kg, BI 836845 100 mg/Kg, vs control IgG, FIG. 47b
Experimental: FIG. 47 illustrates a combination with gemcitabine with IGF blockade inhibites tumor growth in the syngeneic orthotopic pancreatic cancer model: (a) KPC^luc/zsGreen(zsGreen)-derived pancreatic tumor cells were orthotopically implanted into the pancreas of syngeneic recipient mice, and mice were treated, starting at day 7 after tumor implantation, twice a week i.p., with either control IgG antibody, gemcitabine (100 mg/Kg), IGF blocking antibody BI 836845 (100 mg/Kg) or a combination of gemcitabine with IGF blocking antibody. (b) Representative images of tumors and tumor weights are shown (n=6 mice per group). (c) Pancreatic tumors were digested and percentage of intra- tumoral F4/80+ macrophages, Ly6C+/Ly6G− inflammatory monoctyes, Gr1+/CD11b+ neutrophils and myeloid derived suppressor cells (MDSCs) and CD8+ cytotoxic T cells (CTCs), among CD45+ immune cells, were quantified by flow cytometry (n=3). (d) Percentage of intra-tumoral CD206− M1-like macrophages and CD206+M2-like macrophages, among F4/80+ macrophages, were quantified by flow cytometry (n=3). […] (f) Quantification of cleaved caspase-3 positive apoptotic cells in PDA tumors treated with IgG (control), gemcitabine, IGF blocking antibody BI 836845 or gemcitabine+BI 836845 (n=6 fields counted).
All animal experiments were performed in accordance with current UK legislation under an approved project licence (reference number: 403725). […] Tumor tissues were analyzed by immunohistochemical and immunofluorescent staining for phospho-lnsulin/IGFR expression, EpCAM expression, macrophage infiltration, fibroblast activation and apoptosis using the following antibodies: phospho-insulin/IGF receptor antibody (R&D), EpCAM (BD Pharmingen), CD68 antibody (DAKO), CD206 (abcam), αSMA (abcam) and cleaved caspase 3 (Cell signaling). Expression of IGF-1, IGF-2, Arginase, IL-10, IFNγ and IL-12 in intra-tumoral isolated macrophages were determined by qPCR. […]

pancreatic cancer = settings: patients diagnosed with pancreatic cancer; cited from earlier work
[2] = system: Suit-2 and KPC-derived pancreatic cancer cells; assay: Cell death by flow cytometry (annexinV/PI) under chemotherapy with MCM, IGF blocking antibody or recombinant IGF; type: cell-based; settings: recombinant IGF 100 ng/ml, 24 hours, FIGS. 30-32
Experimental: FIG. 29 illustrates quantification of cell death in Suit-2 cells treated with gemcitabine, MCM and IGF blocking antibody for 24 hours. Error bars represent s.d. (n=3); **two tailed p value≤0.01, *two tailed p value≤0.05 using a student's t-test.
FIG. 30 illustrates primary mouse KPC-derived pancreatic cancer cells were untreated or treated with gemcitabine, MCM, IGF blocking antibody or recombinant IGF for 24 hours and percentage of cell death was quantified by flow cytometry. Error bars represent s.d. (n=3); **two tailed p value≤0.01 using a student's t-test.
FIG. 32 illustrates KPC-derived cells which were cultured in the presence or absence of MCM or recombinant IGF and treated with 100 or 1000 nM nab-paclitaxel for 24 hours. Percentage of cell death was quantified by flow cytometry. Error bars represent s.d. (n=3); *two tailed p value≤0.05 using a student's t-test.
Suit-2 and KPC cells were cultured in serum free or DMEM with 2% FBS respectively, pretreated for 3 h with human or mouse macrophage conditioned media respectively, and IGF-1 IgG blocking antibody (abcam 9572) at 10 μg/ml or IgG antibody as control, followed by Gemcitabine at 200 nM. Cells were harvested after 24 hours, and subjected to flow cytometry. […] Apoptosis was evaluated by flow cytometry (FACS Calibur, Becton Dickinson). […]

Insulin/IGF receptor = assay: Immunoblotting of Insulin/IGF receptor signalling in cancer cells; type: cell-based, human, mouse; settings: Suit-2, KPC-derived and Py230 cells, 3 hours; FIG. 27
Experimental: FIG. 27 illustrates Immunoblot analysis of phospho-lnsulin/IGF receptor, phospho-Insulin receptor, Insulin receptor, phospho- IGF receptor 1, IGFR1 and tubulin, in human pancreatic cancer Suit-2 cells, murine primary KPC pancreatic cancer and
Py230 breast cancer derived cells, serum starved, exposed to MCM or exposed to recombinant IGF for 3 hours.
FIG. 28 illustrates that blockade of IGF impairs macrophage-mediated activation of Insulin/IGF receptor and downstream signalling molecules IRS1, IRS2 and AKT in cancer cells by Immunoblotting analysis of Suit-2 cells untreated or treated with MCM or MCM+IGF blocking antibody for 3 hours.
Cells were serum starved or treated with macrophage conditioned media for 30 min, 2 h or 3 h, harvested and lysed in RIPA buffer (150 mM NaCl, 10 mM Tris-HCl pH 7.2, 0.1% SDS, 1% Triton X-100, 5 mM EDTA) supplemented with a complete protease inhibitor mixture (SIGMA), a phosphatase inhibitor cocktail (Invitrogen), 1 mM PMSF and 0.2 mM Na3VO4. Cell lysates (300 μg) were analyzed with the Human Phospho-RTK Array Kit (R&D Systems). Protein samples were resuspended in 4xLaemmli sample buffer, and immunoblotting was performed on nitrocellulose membranes blocked in 5% BSA or milk (depending on the antibody) in Tris-buffered saline Tween-20 (TBST). […]

[3] = system: Suit-2 and KPC derived pancreatic cancer cells; assay: Cell death and cell cycle analysis of cancer cells treated with the agents alone; type: cell-based, human, mouse; settings: no chemotherapy; antibody 10 μg/ml, recombinant IGF 100 ng/ml; FIGS. 52 and 53
Experimental: FIG. 52 illustrates quantification of cell death in Suit-2 cells exposed to 200 nM gemcitabine, MCM and/or IGF blocking antibody (10 μg/ml). Error bars represent s.d. (n=3); **two tailed p value≤0.01 using a student's t-test.
FIG. 53 illustrates cell cycle analysis of primary mouse KPC derived pancreatic cancer cells exposed to MCM, IGF blocking antibody ([…]) or recombinant IGF (100 ng/ml).
KPC derived pancreatic cancer cells were treated with isogenic mouse MDFs, IGF1/2 blocking antibody (abcam 9572) at 10 μg/ml or recombinant IGF (Peprotech 100-11) at 100 ng/ml. Cells were harvested, fixed with methanol, treated for 45 min with 10 μg/ml of RNase, resuspended in PBS containing 10 μg/ml of propidium iodide and subjected to flow cytometry.

[4] = system: MDA-MB-231 breast cancer cells; assay: Cell death by flow cytometry under nab-paclitaxel with MCM or recombinant IGF; type: cell-based, human; settings: recombinant IGF 100 ng/ml; 500 nM nab-paclitaxel, 48 hours; FIG. 33
Experimental: FIG. 33 illustrates human breast MDA-MB-231 cancer cells cultured in the presence or absence of MCM or recombinant IGF and treated with 500 nM nab-paclitaxel for 48 hours. Percentage of cell death was quantified by flow cytometry. Error bars represent s.d. (n=3); *two tailed p value≤0.05, **two tailed p value≤0.01 using a student's t-test.
MDA-MB-231 cells were pretreated for 3 hours with human macrophage derived factors (MDF) or recombinant IGF (100 ng/ml) followed by 500 nM of nab-paclitaxel.

Row | Molecule | effect on tumor growth (tumor weights) [1] | patients treated with gemcitabine who die within 5 years of commencing treatment (pancreatic cancer) | resistance of pancreatic cancer cells to gemcitabine and nab-paclitaxel [2] | Insulin/IGFR signaling in pancreatic and breast cancer cells (Insulin/IGF receptor) | survival or proliferation of cancer cells, agent alone [3] | resistance of breast cancer cells to nab-paclitaxel [4] | phospho-Insulin/IGFR expression in tumors ([1]; immunohistochemical analysis, FIG. 47e)
1 | Nc1ccn([C@@H]2O[C@H](CO)[C@@H](O)C2(F)F)c(=O)n1 [gemcitabine] | no effect | 95% | – | – | – | – | –
2 | recombinant IGF: recombinant IGF (Peprotech 100-11) used at 100 ng/ml | – | – | sufficient to mediate resistance | activates Insulin/IGFR signaling | did not alter the survival or proliferation | sufficient to mediate resistance | –
3 | B1 | modest effect | – | – | – | – | – | decreased
